Measured values reported in patent US11344542B2, “Treatment of aging-associated disease with modulators of leukotriene A4 hydrolase” (Alkahest, Inc., priority 2018, dated 2022).
Entries after “also recorded” stand apart in the source; their conditions may differ.

Experiments:
LTB4 = test: Plasma LTB4 by ELISA in aged mice treated with inhibitors; format: in vivo, mouse; details: terminal plasma, PO daily for 4 weeks, vs vehicle
Description: On the final day of dosing, mice were deeply anesthetized with Avertin (250 mg/kg IP). The mice are subjected to cardiac puncture and blood samples were collected using syringes pre-filled with EDTA or heparin. Blood was either subjected to calcimycin stimulation assay or separated into plasma by centrifugation. Plasma from each mouse was aliquoted and stored at −80° C.
The concentration of mouse LTB4, the product of LTA4H enzyme hydrolysis activity, was measured using commercially-available LTB4 parameter assay kits (R&D Systems and Enzo). Blood samples were collected by cardiac puncture into pre-filled syringes with EDTA and injected into a microcentrifuge tube. The plasma was separated by centrifugation at 1000 g for 15 minutes at 4 C. Alternatively, blood was subjected to a calcimycin stimulation assay to increase the production of LTB4 prior to plasma collection. All plasma was stored at −80 C until measurement of LTB4 levels. LTB4 levels were measured from the plasma from 4-15 individual young (3 month, 3M) or aged (22.5 month, 22.5M) wild-type mice (WT; C57BL/6).
Nineteen-month-old (19 mo) wild type (WT; C57BL/6) mice were homogenized into five (5) groups by body weight, total distance travelled in the open field test, and average velocity in the open field test. […]

LTA4H = biological target: T1, LTA4H (Homo sapiens, UniProt P09960); details: in vitro; Low et al., Sci Rep 2017; cited from earlier work
T1 sequence (P09960 1-611): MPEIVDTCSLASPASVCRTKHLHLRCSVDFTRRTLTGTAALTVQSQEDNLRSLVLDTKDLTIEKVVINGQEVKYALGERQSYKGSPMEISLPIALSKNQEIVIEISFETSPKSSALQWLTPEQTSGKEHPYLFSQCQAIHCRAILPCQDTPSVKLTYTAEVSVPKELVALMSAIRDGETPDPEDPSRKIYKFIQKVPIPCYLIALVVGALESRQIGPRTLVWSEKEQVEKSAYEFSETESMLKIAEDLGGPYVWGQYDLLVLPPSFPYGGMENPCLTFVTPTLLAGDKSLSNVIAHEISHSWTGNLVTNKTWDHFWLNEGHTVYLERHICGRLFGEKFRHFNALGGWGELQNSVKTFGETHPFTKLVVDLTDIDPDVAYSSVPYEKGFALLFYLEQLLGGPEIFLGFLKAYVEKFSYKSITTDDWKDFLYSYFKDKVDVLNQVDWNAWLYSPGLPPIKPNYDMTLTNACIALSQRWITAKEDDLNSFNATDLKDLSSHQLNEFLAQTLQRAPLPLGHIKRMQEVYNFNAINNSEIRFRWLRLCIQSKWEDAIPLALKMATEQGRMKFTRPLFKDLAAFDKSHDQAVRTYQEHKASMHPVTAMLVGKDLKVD

hippocampal mRNA levels = test: qPCR of hippocampal mRNA levels in aged mice treated with inhibitors; format: in vivo, mouse; details: PO daily for 4 weeks, vs vehicle
Description: (§1) Brains were collected following saline perfusion and separated by mid-sagittal slice with one-half drop fixed in freshly prepared 4% PFA. PFA was changed to 30% sucrose 24-48 hours later. A second change to 30% sucrose occurred 24 hours later. The second half was dissected into hippocampus and cortex and then snap frozen on dry ice.
(§2) Brain tissue was sectioned or lysed and analyzed for markers of neurogenesis and aging by standard histological and biochemical methods, including qRT-PCR, Western blot, ELISA, and immunohistochemistry.
(§3) Nineteen-month-old (19 mo) wild type (WT; C57BL/6) mice were homogenized into five (5) groups by body weight, total distance travelled in the open field test, and average velocity in the open field test. Group 1 was administered 10% EtOH control PO daily for 4 weeks, Group 2 was administered 5 mg/kg of SC-57461A LTA4H dual inhibitor PO daily for 4 weeks; Group 3 was administered 10 mg/kg of CP-105,696 LTB4 receptor (BLTR) antagonist PO daily for 4 weeks, Group 4 was administered 10 mg/kg of Montelukast cysteinyl receptor (CysLTR) antagonist daily for 4 weeks, and Group 5 was administered 10 mg/kg of pinostilbene hydrate daily for 4 weeks. During Week 4 of treatment all groups were tested using open field, radial arm water maze, and Y-maze. During Week 5 animals were sacrificed, and tissues collected for histological and biochemical analysis.

[1] = system: aquaporin 4 (AQP4) in the hippocampus; test: Aquaporin 4 (AQP4) immunofluorescence in the hippocampus of aged mice; format: in vivo, mouse; details: 10 mg/kg PO daily for 4 weeks
Description: as §1, §2, §3

[2] = system: nineteen-month-old wild type (C57BL/6) mice; test: Y-maze in aged mice treated with inhibitors; format: in vivo, mouse; details: PO daily for 4 weeks, SC 5 mg/kg, CP 10 mg/kg
Description: A large Y-maze test assessed short-term memory of the familiarity of a specific context. Mice were brought to the experimental room for at least 30 min of acclimation to the experimental room conditions (dim lighting) prior to testing. For the initial training trial, the mouse was placed at the end of one arm of a large Y-maze designated “start arm” (arm length: 15 inches). The third arm of the maze was blocked off, allowing the mouse to explore two of the three arms freely (“start arm” and “familiar arm”) for 5 min. Each arm contained spatial cues. Three hours later, the mouse was placed back into the maze in the “start arm,” and allowed to explore all three arms with the third arm unblocked (“novel arm”). Movements in and out of each arm were tracked using automated tracking software (CleverSys or San Diego Instruments). Testing was performed under dim lighting, and the apparatus was cleaned with 70% ethanol between trials. The time spent and number of entireties into the “novel arm” and “familiar arm” were analyzed, as well as total distance travelled and velocity as measures of general locomotor activity.
Recombinant human LTA4H (Bio-techne, 4008-SN) was buffer-exchanged into sterile PBS and dosed at 4.6 ug/150 uL by tail vein i.v. injection. SC-57461A (Cayman Chemical, 423169-68) stock solution was prepared at 10 mg/mL in DMSO. […]

[3] = system: nineteen-month-old wild type (C57BL/6) mice; test: Radial arm water maze in aged mice treated with inhibitors; format: in vivo, mouse
Description: The water maze (see, e.g. Alamed J, et al., Two-day radial-arm water maze learning and memory tasks; robust resolution of amyloid-related memory deficits in transgenic mice., Nat. Protoc., 1(4):1671-79 (2006)), was filled with water at least 24 hours prior to the test to equilibrate to 25° C. The water was dyed with white latex paint to make the animals visible for tracking and to allow for the use of a hidden platform. Eight distinct visual cues were placed at the end of each of eight arms of the RAWM inserts. On day 1 animals were subjected to 5 trials each with a visible platform and a 30-minute inter-trial interval. Animals had 60 seconds to reach the platform. […] The goal arm remained constant and a different start arm was randomly assigned for each of the 5 trials so that mouse started in every arm once except for the two arms directly across from the platform. The goal arm was switched after every two mice and balanced between all treatment groups. After each trial the mice were placed in an empty cage with blue pads and allowed to dry off under a heat lamp before being placed back into their home cage. Testing day was 48 hours after training, when animals were subjected to the same test of 5 trials each and a 30-minute inter-trial interval, but with a hidden platform Animals were scored for the number of errors (entry into a non-goal arm) and for latency to reach the platform. All trials were recorded using TopScan software (CleverSys, Inc., Reston, Va.).
Recombinant human LTA4H (Bio-techne, 4008-SN) was buffer-exchanged into sterile PBS and dosed at 4.6 ug/150 uL by tail vein i.v. injection. SC-57461A (Cayman Chemical, 423169-68) stock solution was prepared at 10 mg/mL in DMSO. Stock solution was diluted into sterile PBS immediately prior to p.o. dosing to a final concentration of 10% DMSO and 1 mg/mL SC-57461A. Mice were p.o. dosed at 5 mg/kg. CP-105,696 (Sigma, PZ0363), Pinostilbene hydrate (Sigma, SML0098), and Montelukast (Cayman Chemical, 10008318) stock solutions were prepared at 30 mg/mL in EtOH/Solutol. […]

[4] = hidden platform testing phase, compared to vehicle mice

| Compound | plasma concentration of LTB4 measured by ELISA (LTB4) | inhibition of hydrolase versus peptidase activity of LTA4H (LTA4H) | TNFα hippocampal mRNA expression (qPCR) (hippocampal mRNA levels) | fluorescence intensity of AQP4 in the hippocampus immediately surrounding blood vessels (vascular) [1] | integrated optical density of aquaporin 4 (AQP4) in the hippocampus ([1]; vs vehicle, hydrate, 10 mg/kg) | preference for the novel versus familiar arm in Y-maze (percentage of entries) [2] | IL-1β hippocampal mRNA expression (qPCR) (hippocampal mRNA levels) | IL-6 hippocampal mRNA expression (qPCR) (hippocampal mRNA levels) | aqp4 hippocampal mRNA expression (qPCR) (hippocampal mRNA levels) | h2d1 hippocampal mRNA expression (qPCR) (hippocampal mRNA levels) | timp1 hippocampal mRNA expression (qPCR) (hippocampal mRNA levels) | hippocampus-dependent spatial memory in radial arm water maze ([3]; aged mice, PO daily for 4 weeks, SC 5 mg/kg, Montelukast 10 mg/kg) | latency to find the platform in radial arm water maze [3, 4] | number of errors in radial arm water maze [3, 4] |
| --- | --- | --- | --- | --- | --- | --- | --- | --- | --- | --- | --- | --- | --- | --- |
| COc1cc(O)cc(/C=C/c2ccc(O)cc2)c1 [pinostilbene hydrate] | did not detect a reduction | only inhibit the hydrolase activity and not the peptidase activity | significant decrease | trend towards a decrease | trend towards a decrease; also recorded: significant reduction | – | – | – | – | – | – | – | – | – |
| CN(CCCOc1ccc(Cc2ccccc2)cc1)CCC(=O)O.Cl [SC-57461A] | reduces | – | significant decrease | – | – | trend towards preference for the novel arm | significant decrease | significant decrease | significant decrease | significant decrease | trend towards a decrease | improvement | significantly shorter latency | fewer errors |
| O=C(O)C1(c2ccc3c(c2)OC[C@H](Cc2ccc(-c4ccccc4)cc2)[C@H]3O)CCCC1 [CP-105,696] | – | – | – | – | – | statistically significant preference for the novel arm | – | – | – | – | – | – | – | – |
